System: 1057 cells (GRPR^pos)
Test: Cell growth of GRPR^pos mouse melanoma cells
Format: cell-based
Conditions: 1 µM GRPR inhibitor + 10 nM GRP, low-serum medium, 48 h

**Q.** How did the “GRP-induced growth assessed by MTT” value turn out when COc1ccc(C2(CNC(=O)[C@](C)(Cc3c[nH]c4ccccc34)NC(=O)Nc3ccc([N+](=O)[O-])cc3)CCCCC2)nc1 [PD-176252] was run?
**A.** same blocking effect

Reference: doi:10.1101/2022.12.02.518844v2 (bioRxiv, 2022)
